Reference: PubChem BioAssay (NCI)
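Compound exposure: 48 hours, 5 concentrations, 96-well plates. GI50 marks 50% less growth. TGI marks complete inhibition of growth.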

How the values were obtained:
Assay in all cases: growth of human tumour cells (NCI), 48 h
[1] = tested on: SR leukemia
[2] = tested on: HS 578T breast
[3] = tested on: IGROV1 ovarian
[4] = tested on: MDA-MB-231 breast
[5] = tested on: DMS 114 small cell lung
[6] = tested on: M19-MEL melanoma
[7] = tested on: KM20L2 colon
[8] = tested on: SNB-78 CNS
[9] = tested on: LXFL 529 NSCLC
[10] = tested on: DLD-1 colon

SMILES	GI50 [1]	TGI [1]	GI50 [2]	TGI [2]	GI50 [3]	TGI [3]	GI50 [4]	TGI [4]	TGI [5]	TGI [6]	TGI [7]	TGI [8]	TGI [9]	TGI [10]
CC1(C)C(=O)/C(=C\c2cccnc2)C[C@]2(C)[C@H]3CC[C@@H]4[C@H]5[C@H](C(=O)/C=C/c6cccnc6)CC[C@]5(C(=O)O)CC[C@@]4(C)[C@]3(C)CC[C@@H]12	2.03 µM	29.7 µM	7.61 µM	> 100 µM	–	–	–	–	–	–	–	–	–	–
COc1cc2ncnc(-n3ncc4cc(NC(=O)Nc5ccccc5)ccc43)c2cc1OC	2.03 µM	15.3 µM	0.299 µM	3.37 µM	0.427 µM	4.62 µM	1.39 µM	4.92 µM	–	–	–	–	–	–
Cn1cc(C2(C)CC(C)(C)c3c2n(C)c2ccccc32)c2ccccc21 (stereo not given)	–	–	–	–	–	> 100 µM	–	–	> 100 µM	> 100 µM	> 100 µM	> 100 µM	> 100 µM	> 100 µM
COc1ccc(C(=O)c2cc(OC)c(OC)c(OC)c2)cc1/C=C/C(=O)c1ccc(F)cc1	2.04 µM	95.7 µM	4.48 µM	> 100 µM	2.59 µM	6.73 µM	4.72 µM	84.5 µM	–	–	–	–	–	–
COC(=O)C(Cc1nc2ccccc2[nH]c1=O)C(NO)C(=O)Nc1c(Cl)cc([N+](=O)[O-])cc1Cl (stereo not given)	–	> 100 µM	–	–	–	> 100 µM	–	–	54.8 µM	–	–	> 100 µM	–	> 100 µM
COC(=O)C(CC(=O)Nc1ccc(C)cc1)C(=O)C(=O)Nc1c(C(C)C)cccc1C(C)C (stereo not given)	–	–	–	–	–	> 100 µM	–	–	> 100 µM	> 100 µM	> 100 µM	> 100 µM	> 100 µM	> 100 µM
OCC1OC(n2cnc3c2NC=NC[C@H]3O)C(Cl)C1O (stereo not given in full)	–	> 100 µM	–	> 100 µM	–	> 100 µM	–	> 100 µM	–	–	–	–	–	–
COc1ccc(-c2[nH]c3ccc(OC)cc3c2/C=C(\C#N)S(=O)(=O)c2ccccc2)cc1	0.305 µM	2.6 µM	0.531 µM	7.25 µM	3.76 µM	> 45.9 µM	1.32 µM	> 30.7 µM	–	–	–	–	–	–
O=c1cc(NCC(O)CN2CCCC2)n(Cc2ccccc2)c(=O)n1Cc1ccccc1 (stereo not given)	0.847 µM	31 µM	37 µM	> 100 µM	26.6 µM	95.4 µM	26.3 µM	70.6 µM	–	–	–	–	–	–
c1ccc(Sc2ccc(Cc3nc4cc5ccccc5cc4[nH]3)cc2)cc1	26 µM	> 100 µM	17.7 µM	91.5 µM	27.1 µM	> 100 µM	3.31 µM	29.9 µM	–	–	–	–	–	–
CCc1nc2cc(F)c(/C=C/C(=O)NO)cc2c(=O)n1CCc1ccccc1	0.354 µM	53.3 µM	0.489 µM	26.9 µM	–	–	0.376 µM	15.3 µM	–	–	–	–	–	–
COc1cc(OC)c(C(=O)/C=C/c2cccc(C(F)(F)F)c2)c(OC)c1	0.826 µM	3.13 µM	3.93 µM	28.6 µM	1.71 µM	5.6 µM	1.76 µM	6.05 µM	–	–	–	–	–	–
C/C(=N\Nc1ccc(Cl)cn1)c1ccc2ccccc2n1	1.68 µM	36.1 µM	4.78 µM	> 100 µM	2.88 µM	> 100 µM	3.36 µM	> 100 µM	–	–	–	–	–	–
CC1=C(/C=C/Cl)CC(Cl)C(C)(Cl)C1 (stereo not given)	–	> 100 µM	–	> 100 µM	–	> 100 µM	–	> 100 µM	–	–	–	–	–	–
COc1cc2c(cc1OCCCCC(=O)Nc1cc3c4ccccc4ccc3c3ccccc13)N=C[C@@H]1CCCN1C2=O	–	–	17.7 µM	> 100 µM	2.11 µM	> 25.6 µM	1.06 µM	17 µM	–	–	–	–	–	–
CN1CCc2nc(N)nc(-c3nc(N)nc4c3CN(C)CC4)c2C1	–	> 100 µM	–	> 100 µM	–	> 100 µM	–	> 100 µM	–	–	–	–	–	–
COc1c2c(cc3c1OCO3)[C@]13C=C[C@H](OC)C[C@H]1N(C2)CC3O (stereo not given in full)	–	> 100 µM	–	> 100 µM	–	> 100 µM	–	> 100 µM	–	–	–	–	–	–
C=C1C(=O)O[C@H]2[C@H]1CC/C(COC(=O)NCCCCNC(=O)OC/C1=C/CC[C@@]3(C)O[C@H]3[C@H]3OC(=O)C(=C)[C@@H]3CC1)=C\CC[C@@]1(C)O[C@@H]21	0.549 µM	3.51 µM	2.54 µM	8.14 µM	3.32 µM	12.4 µM	1.53 µM	3.24 µM	–	–	–	–	–	–
COc1ccc(C[N+](C)(C)N)cc1OC	> 100 µM	> 100 µM	> 100 µM	> 100 µM	–	> 100 µM	> 100 µM	> 100 µM	–	–	–	–	–	–
COc1ccc(-c2cc(-c3cc(C)cc(Br)c3O)no2)cc1	–	> 100 µM	–	> 100 µM	–	> 100 µM	–	64.6 µM	–	–	–	–	–	–
COc1ccc(-c2nc3ccccn3c2/C=C/C(=O)c2cc(OC)c(OC)c(OC)c2)cc1OC	–	–	1.85 µM	9.82 µM	3.03 µM	12.1 µM	3.28 µM	45 µM	–	–	–	–	–	–
COc1c(C(=O)/C=C/c2ccccc2)c(O)cc2occc12	3.27 µM	22.2 µM	2.76 µM	8.36 µM	3.51 µM	11.4 µM	4.38 µM	17.5 µM	–	–	–	–	–	–
O=C(N/N=C/c1cc(Br)ccc1O)N/N=C/c1cc(Br)ccc1O	–	> 100 µM	–	–	–	–	–	–	> 100 µM	> 100 µM	> 100 µM	–	–	> 100 µM
CC(C)c1c(O)c(O)c2c(c1O)C(=O)C(O)=C1C(C)(C)CCC[C@@]12C	–	6.59 µM	–	43.5 µM	–	13.9 µM	–	7.29 µM	–	–	–	–	–	–
NS(=O)(=O)c1ccc(-c2ccc3c(NC(=O)C4CC4)n[nH]c3c2)cc1	> 25 µM	> 25 µM	> 25 µM	> 25 µM	> 25 µM	> 25 µM	> 25 µM	> 25 µM	–	–	–	–	–	–
CCCN(CCC)C(=O)c1c([N+](=O)[O-])cc(C(F)(F)F)cc1[N+](=O)[O-]	–	> 100 µM	–	–	–	> 100 µM	–	–	–	27 µM	53.7 µM	> 100 µM	> 100 µM	–
COc1cc2c3c(n(CCCN)c(=O)c2cc1OC)-c1ccc(C#N)cc1C3=O	–	–	18 µM	41.5 µM	8.79 µM	> 100 µM	14.3 µM	29.3 µM	–	–	–	–	–	–
C=CCCCCC/C=C\[C@@H](O)C#CC#C/C=C/CO	–	–	> 100 µM	> 100 µM	23.5 µM	> 100 µM	40 µM	> 100 µM	–	–	–	–	–	–
